Source: EP0106793A1, “7-Alpha-alkyl-17-alpha-pregn-4-ene-21,17-carbolactones and -21-carboxylic acid salts and procedures for manufacturing them and pharmaceutical preparations containing them” (SCHERING AKTIENGESELLSCHAFT, priority 1982, dated 1984)

System: aldosterone
Experiment: antialdosterone effect, experimental model by Hollmann
Format: in vivo
Conditions: relative to spironolactone = 1
Procedure: The antialdosterone effect was determined and measured in an experimental model by Hallmann (G. Hollmann et al, Tubular Effects and Renal Elimination of Spirono- lactones, Naunyn-Schmiedebergs Arch. Exp. Path. Pharmak. 247 (1964), p 419; P. Marx, Renal Effects of d-aldosterone and Its Antagonist Spironolactone, Diss. Med. Fak. FU Berlin, 1966 whose disclosure is incorporated by references herein).

SMILES: CC(=O)S[C@@H]1CC2=CC(=O)CC[C@]2(C)[C@H]2CC[C@@]3(C)[C@@H](CC[C@@]34CCC(=O)O4)[C@H]12 [spironolactone]
- relative values of the degree of antialdosterone effect: 1
